# Compound: Cn1nnc2c(C(N)=O)ncn2c1=O [Temozolomide] + Cc1nc(Nc2ncc(C(=O)Nc3c(C)cccc3Cl)s2)cc(N2CCN(CCO)CC2)n1 [Dasatinib] (partner 0.075 µM)
# Test: relative viability (nuclei count vs DMSO), 5 days (fraction); higher = more cells survive
# Settings: first compound 0.2 µM
# Outline: (§1)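 Dosing by pin tool came one day after lung cancer cell lines were seeded in 1536-well plates, using either one drug or a fixed anchor-drug dose plus five library-drug doses (not always all listed) in √10 steps. After 5 days, nuclei were counted on 4× images. Relative viability is treated-well nuclei count divided by vehicle-well nuclei count, and values are medians of duplicate plates.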
row,Cell Line,relative viability
1,RERF-LC-KJ,0.913
2,SK-LU-1,0.196
3,SW 1573,0.532
4,UMC-11,0.567

# Same assay, conditions: first compound 0.6325 µM
row,Cell Line,relative viability
1,RERF-LC-KJ,0.825
2,SK-LU-1,0.178
3,SW 1573,0.533
4,UMC-11,0.469

# Same assay, conditions: first compound 2 µM
row,Cell Line,relative viability
1,RERF-LC-KJ,0.931
2,SK-LU-1,0.206
3,SW 1573,0.594
4,UMC-11,0.536

# Same assay, conditions: first compound 6.325 µM
row,Cell Line,relative viability
1,RERF-LC-KJ,0.931
2,SK-LU-1,0.143
3,SW 1573,0.355
4,UMC-11,0.489

# Same assay, conditions: first compound 20 µM
row,Cell Line,relative viability
1,RERF-LC-KJ,0.767
2,SK-LU-1,0.197
3,SW 1573,0.489
4,UMC-11,0.442

# Compound: Cn1nnc2c(C(N)=O)ncn2c1=O [Temozolomide] + CC(C)C[C@H](NC(=O)[C@H](Cc1ccccc1)NC(=O)c1cnccn1)B(O)O [Bortezomib] (partner 0.002 µM)
# Test: as above
# Settings: first compound 0.2 µM
# Outline: as §1
row,Cell Line,relative viability
1,RERF-LC-KJ,1.13
2,SK-LU-1,1.33
3,SW 1573,0.949
4,UMC-11,0.861

# Same assay, conditions: first compound 0.6325 µM
row,Cell Line,relative viability
1,RERF-LC-KJ,1.3
2,SK-LU-1,1.3
3,SW 1573,1.12
4,UMC-11,0.924

# Same assay, conditions: first compound 2 µM
row,Cell Line,relative viability
1,RERF-LC-KJ,1.17
2,SK-LU-1,1.22
3,SW 1573,1.05
4,UMC-11,0.945

# Same assay, conditions: first compound 6.325 µM
row,Cell Line,relative viability
1,RERF-LC-KJ,1.09
2,SK-LU-1,0.53
3,SW 1573,1.19
4,UMC-11,0.519

# Same assay, conditions: first compound 20 µM
row,Cell Line,relative viability
1,RERF-LC-KJ,1.08
2,SK-LU-1,0.417
3,SW 1573,1.18
4,UMC-11,0.377

# Compound: Cn1nnc2c(C(N)=O)ncn2c1=O [Temozolomide] + O=C(CCCCCCC(=O)Nc1ccccc1)NO [Vorinostat] (partner 1 µM)
# Test: as above
# Settings: first compound 0.2 µM
# Outline: as §1
row,Cell Line,relative viability
1,RERF-LC-KJ,0.602
2,SK-LU-1,0.89
3,SW 1573,0.794
4,UMC-11,0.388

# Same assay, conditions: first compound 0.6325 µM
row,Cell Line,relative viability
1,RERF-LC-KJ,0.7
2,SK-LU-1,0.769
3,SW 1573,1.04
4,UMC-11,0.415

# Same assay, conditions: first compound 2 µM
row,Cell Line,relative viability
1,RERF-LC-KJ,0.756
2,SK-LU-1,0.713
3,SW 1573,1.08
4,UMC-11,0.423

# Same assay, conditions: first compound 6.325 µM
row,Cell Line,relative viability
1,RERF-LC-KJ,0.646
2,SK-LU-1,0.505
3,SW 1573,0.803
4,UMC-11,0.391

# Same assay, conditions: first compound 20 µM
row,Cell Line,relative viability
1,RERF-LC-KJ,0.663
2,SK-LU-1,0.421
3,SW 1573,0.633
4,UMC-11,0.264

# Compound: C[C@@H](C(=O)N[C@@H](C1CCCCC1)C(=O)N2CCC[C@H]2C(=O)N[C@@H]3[C@@H](CC4=CC=CC=C34)OCC#CC#CCO[C@@H]5CC6=CC=CC=C6[C@@H]5NC(=O)[C@@H]7CCCN7C(=O)[C@H](C8CCCCC8)NC(=O)[C@H](C)NC)NC [AZD5582] + Nc1nc2[nH]cc(CCc3ccc(C(=O)N[C@@H](CCC(=O)O)C(=O)O)cc3)c2c(=O)[nH]1 [Pemetrexed] (partner 0.2 µM)
# Test: as above
# Settings: first compound 0.001581 µM
# Outline: as §1
row,Cell Line,relative viability
1,RERF-LC-KJ,0.154
2,SK-LU-1,0.73
3,SW 1573,0.805
4,UMC-11,0.73

# Same assay, conditions: first compound 0.005 µM
row,Cell Line,relative viability
1,RERF-LC-KJ,0.235
2,SK-LU-1,0.5
3,SW 1573,0.774
4,UMC-11,0.848

# Same assay, conditions: first compound 0.01581 µM
row,Cell Line,relative viability
1,RERF-LC-KJ,0.457
2,SK-LU-1,0.978
3,SW 1573,0.954
4,UMC-11,0.755

# Same assay, conditions: first compound 0.05 µM
row,Cell Line,relative viability
1,RERF-LC-KJ,0.289
2,SK-LU-1,0.285
3,SW 1573,0.821
4,UMC-11,0.864

# Source: the supplement of paper PMC10307832
